Assay [1] concerns ovulation. Conditions: 21-day use; cited from earlier work.
Assay [2] has as its system ovulation. Particulars: cited from earlier work.
The subject of assay [3] is adult female rats with normal cycles. Briefly: Ovulation inhibition test on rats. Format: in vivo, rat. Conditions: 5 animals; for Ovulation count, absolute / Ovulation count, mean: 4 days. The protocol: The efficacy of the composition according to the invention was ascertained by ovulation-inhibiting studies carried out on adult female rats with normal cycles. First, using 5 dose groups plus placebo (0.003 mg, 0.01 mg, 0.03 mg, 0.1 mg and 0.3 mg), the limit dose of levonorgestrel (LNG) was determined at which there is still no ovulation-inhibiting effect.
With the dose of LNG thus determined (0.01 mg), a comparison test was then carried out in which the ovulation-inhibiting effect of LNG, placebo, meloxicam, piroxicam, and the combination of LNG and meloxicam, was compared against the composition, according to the invention, of LNG plus piroxicam.
With the onset of the metestrus, 5 animals in each case were treated on four successive days with (a) placebo, (b) 0.01 mg of LNG, (c) 2 mg of piroxicam, (d) 0.01 mg of LNG and 2 mg of piroxicam, (e) 2 mg of meloxicam, and (f) […] of LNG and 3 mg of meloxicam. LNG was given by s.c. administration, and the COX inhibitor was given orally (p.o.).
In the following test, female rats weighing between 200 and 220 g were used. The animals were housed in macrolon cages in rooms under controlled lighting conditions (12 hours of darkness, 12 hours of light), were fed a standard diet and had access to water ad libitum.
Levonorgestrel was dissolved in benzyl benzoate/castor oil (1+4 v/v), and the daily dose was given by s.c. administration in a volume of 1 ml/kg body weight.
The COX inhibitors were suspended in a carrier liquid (85 mg of MyrjR53 (2-hydroxyethyl octadecanoate; CAS no. 9004-99-3) in 100 ml of 0.9% w/v NaCl solution), and the daily dose corresponding to the treatment group was administered orally in a volume of 2 ml/kg body weight.
(§1) Two cycles were monitored using vaginal smears before the start of the test. Only animals with a regular 4-day cycle were entered in the test. The allocation to the treatment groups was randomized. Starting in the metestrus, the test substance was administered for 4 days (days 1-4) and the cycle continued to be monitored. On day 3 of treatment (proestrus), a retrobulbar blood sample was taken at 9.00 h and from 18.30 h in order to determine the luteinizing hormone (LH). On day 4 (after administration), the animals with vaginal smears showing them in estrus or metestrus underwent unilateral ovariectomy under anaesthetic. Crush preparations were made from the tubes and were examined under a microscope for the presence of oocytes. On day 5, all the animals (the intact animals and those having undergone unilateral ovariectomy) were sacrificed, and the tubes of the animals in estrus and metestrus were prepared and examined in the same way. […] By contrast, the COX inhibitors on their own provide only partial suppression of ovulation.
(§2) The test set-up corresponds to the one described in Example 1.

The subject of assay [4] is serum progesterone concentration. Briefly: Serum progesterone concentration in proestrus at 19.00 h (Example 2). The format is in vivo, rat. The protocol: This can be seen as an indicator of the efficiency of the LH peak in changing from a predominantly estrogen-producing ovary (before the LH peak) to a predominantly progesterone-producing ovary (caused by the LH peak). […] By contrast, the literature describes that other COX inhibitors have no effect on the hormonal levels [Pall et al.; Human Reproduction vol. 16, no. 7, pp 1323-1328 (2001); Bata et al., J Clin Pharmacol (2006) 46:925-932]. […] The ovulation rates in the combination with 0.01 mg of levonorgestrel and 0.5 mg of piroxicam (31 oocytes), with 1 mg of piroxicam (19 oocytes) and with 2 mg of piroxicam (0 oocytes) were much lower here and, in the highest dose, even led to complete anovulation (10 animals per group).
as §1, §2

For assay [5], the system named is adult female rats with normal cycles. Briefly: Ovulation inhibition test on rats. Format: in vivo, rat.
Assay [6] relates to ovulated cumulus-oocyte complexes. Briefly: In vitro fertilization rate of ovulated cumulus-oocyte complexes after in vivo treatment (Example 3). On the set-up: species or system mice. Particulars: n=5 animals. The text has this:
Substances can influence fertility by reducing the fertilizability of oocytes or cumulus-oocyte complexes. In order to investigate such effects, substances can be administered in vivo and, after ovulation from cumulus/oocyte complexes, can be subjected to in vitro fertilization. The in vitro fertilization rate, with no further test substance being added, allows conclusions to be drawn regarding the in vivo effects of the test substances.
Immature female mice (strain: B6D2F1, Charles River, Suelzfeld, age: 19-25 days) were housed in macrolon cages in rooms under controlled lighting conditions (12 hours of darkness, 12 hours of light), were fed a standard diet and had access to water ad libitum. The mice were primed with PMSG (Pregnant Mare Serum Gonadotropin) (10 IU/animal i.p.). After 48 hours, an ovulation-triggering stimulus was induced in the animals by administration of 10 IU/animal i.p. The COX inhibitors were suspended in a carrier liquid (85 mg MyrjR53 (2-hydroxyethyl octadecanoate; CAS no. 9004-99-3) in 100 ml of 0.9% w/v NaCl solution), and the daily dose corresponding to the treatment group (n=5 animals per group) was administered in a volume of 0.2 ml p.o. 8 hours before and together with hCG. Fourteen hours after hCG administration, the animals were sacrificed. Ovulated oocytes and cumulus-oocyte complexes were recovered from the ovarian bursa and/or oviduct and subjected to in vitro fertilization, with a sperm count of 40,000 sperm/0.5 ml for 1 hour being used for the fertilization. Twenty-four hours after incubation with the sperm, the number of fertilized oocytes was established and the percentage fertilization rate determined.

Setting [7] is: 25 mg on 9 successive days (Pall et al.).

Each structure is given as a SMILES string. Several values for one entry are separate records, joined by “and”; a condition that tells them apart may be missing. Identical values can stand only once. Like-named read-outs stand apart in the source and are kept apart here.

As for `C#C[C@]1(O)CC[C@H]2[C@@H]3CCC4=CCCC[C@@H]4[C@H]3C(=C)C[C@@]21CC` [Desogestrel (DSG), Desogestrel], in assay [1], the “minimal dose for inhibition of ovulation, p.o. dose/day” value is 60 μg^28.

For the molecule `C[C@H](O)C(=O)[C@@]1(C)CC[C@H]2[C@@H]3CCC4=CC(=O)CCC4=C3CC[C@@]21C` [Trimegestone], the “minimal dose for inhibition of ovulation, p.o. dose/day” value in assay [1] was 0.5 mg^33.

With `CC(=O)O[C@]1(C(C)=O)CC[C@H]2[C@@H]3C[C@H](C)C4=CC(=O)CC[C@]4(C)[C@H]3CC[C@@]21C` [Medroxyprogesterone acetate (MPA), Medroxyprogesterone acetate], in assay [1], the “minimal dose for inhibition of ovulation, p.o. dose/day” value is recorded as 10 mg^33.

For the molecule `CCC(=O)[C@@]1(C)CC[C@H]2[C@@H]3CCC4=CC(=O)CCC4=C3CC[C@@]21C` [Promegestone], the “minimal dose for inhibition of ovulation, p.o. dose/day” value in assay [1] is reported as 0.5 mg^33.

As to `C#C[C@]1(O)CC[C@H]2[C@@H]3CCC4=CCCC[C@@H]4[C@H]3CC[C@@]21C` [Lynestrenol], in assay [1], the “minimal dose for inhibition of ovulation, p.o. dose/day” value is recorded as 2 mg^33.

As to `C#C[C@]1(OC(C)=O)CC[C@H]2[C@@H]3CCC4=CC(=NO)CC[C@@H]4[C@H]3CC[C@@]21CC` (mixture of isomers) [Norgestimate (NGM), Norgestimate], the “minimal dose for inhibition of ovulation, p.o. dose/day” value in assay [1] is given as 180-250 μg^31.

For `C#C[C@]1(OC(C)=O)CC[C@H]2[C@@H]3CCC4=CC(=O)CC[C@@H]4[C@H]3CC[C@@]21C` [Norethisterone acetate (NETA), Norethisterone acetate], in assay [1], the “minimal dose for inhibition of ovulation, p.o. dose/day” value is given as 0.5 mg^33.

On to `CC(=O)[C@@]1(C)CC[C@H]2[C@@H]3C=C(C)C4=CC(=O)CC[C@]4(C)[C@H]3CC[C@@]21C` [Medrogestone], for which, in assay [1], the “minimal dose for inhibition of ovulation, p.o. dose/day” value is given as 10 mg^33.

With `CC(=O)O[C@]1(C(C)=O)CC[C@H]2[C@@H]3C=C(Cl)C4=CC(=O)[C@@H]5C[C@@H]5[C@]4(C)[C@H]3CC[C@@]21C` [Cyproterone acetate (CPA), Cyproterone acetate], the “minimal dose for inhibition of ovulation, p.o. dose/day” value in assay [1] is listed as 1 mg^33.

As to `Cc1cnc(NC(=O)C2=C(O)c3ccccc3S(=O)(=O)N2C)s1` [Meloxicam, meloxicam], the delay in ovulation in assay [2] (30 mg per patient and day on 5 successive days (Bata et al.)) was 5 days. In assay [3] (COX inhibitor 2 mg p.o.), the “Ovulation count, absolute” value is 28 and the “Ovulation count, mean” value is 5.6 ± 2.5.

`CC(=O)O[C@]1(C(C)=O)CC[C@H]2[C@@H]3C=C(C)C4=CC(=O)CC[C@@H]4[C@H]3CC[C@@]21C` [Nomegestrol acetate (NOMAc), Nomegestrol acetate]: the “minimal dose for inhibition of ovulation, p.o. dose/day” value in assay [1] is recorded as 2.5 mg^32.

As to `CS(=O)(=O)c1ccc(C2=C(c3ccccc3)C(=O)OC2)cc1` [rofecoxib], in assay [2] (setting [7]), the delay in ovulation entry was “over 48 hours” and the “patients with delay in ovulation of over 48 hours” value is listed as 4 of 6.

Consider `C[C@]12CCC(=O)C=C1[C@@H]1C[C@@H]1[C@H]1[C@@H]3[C@@H]4C[C@@H]4[C@@]4(CCC(=O)O4)[C@@]3(C)CC[C@@H]12` [Drospirenone (DRSP), Drospirenone], for which the “minimal dose for inhibition of ovulation, p.o. dose/day” value in assay [1] is on record as 2 mg^33.

As to `CN1C(C(=O)Nc2ccccn2)=C(O)c2ccccc2S1(=O)=O` [Piroxicam, piroxicam], the “Progesterone in proestrus at 19.00 h—mean ± SD (n = 10)” value came out at 237 ± 49 in assay [4] (0.5 mg p.o.), 183 ± 67 in assay [4] (1 mg p.o.) and 122 ± 94 in assay [4] (2 mg p.o.). Further, the oocytes ovulated in assay [5] (1 mg piroxicam alone) turned out to be 28 oocytes; in assay [5] (Example 2, 0.5 mg piroxicam p.o., 10 animals per group), 85 oocytes; in assay [5] (Example 2, 1 mg piroxicam p.o., 10 animals per group) it was 56 oocytes; in assay [5] (Example 2, 2 mg piroxicam p.o., 10 animals per group) it was 30 oocytes; in assay [3] (treatment group (c), 2 mg piroxicam on its own), 9 oocytes. Also, the “Ovulation count, absolute” value in assay [3] (COX inhibitor 2 mg p.o.) stood at 9. Besides, the “Ovulation count, mean” value in assay [3] (COX inhibitor 2 mg p.o.) is on record as 1.8 ± 0.4. Moreover, the “Fertilization rate (% ± SD)” value in assay [6] (2 × 0.15 mg/animal p.o.) is recorded as 19 ± 8%; in assay [6] (2 × 0.3 mg/animal p.o.), 14 ± 18%; in assay [6] (2 × 0.5 mg/animal p.o.) it was 12 ± 7%.

For `CC(=O)[C@H]1CC[C@H]2[C@@H]3CCC4=CC(=O)CC[C@]4(C)[C@H]3CC[C@]12C` [Progesterone], the “minimal dose for inhibition of ovulation, p.o. dose/day” value in assay [1] was 300 mg^33.

Take `C#C[C@]1(O)C=C[C@H]2[C@@H]3CCC4=CC(=O)CC[C@@H]4[C@H]3CC[C@@]21CC` [Gestodene (GSD), Gestodene]: the “minimal dose for inhibition of ovulation, p.o. dose/day” value in assay [1] was 30 µg and 40 to 50 µg.

Consider `C#C[C@]1(O)CC[C@H]2[C@@H]3CCC4=C[C@@H](O)CC[C@@H]4[C@H]3CC[C@@]21C` [Ethynodiol], for which, in assay [1], the “minimal dose for inhibition of ovulation, p.o. dose/day” value is listed as 2 mg33.

Turning to `C[C@]12CCC3=C4CCC(=O)C=C4CC[C@H]3[C@@H]1CC[C@@]2(O)CC#N` [Dienogest (DNG), Dienogest], in assay [1], the “minimal dose for inhibition of ovulation, p.o. dose/day” value is recorded as 1-2 mg^29.

Turning to `C#C[C@]1(O)CC[C@H]2[C@@H]3CCC4=CC(=O)CC[C@@H]4[C@H]3CC[C@@]21C` [Norethisterone], in assay [1], the “minimal dose for inhibition of ovulation, p.o. dose/day” value is on record as 0.5 mg^33.

As to `C#C[C@]1(O)CC[C@H]2[C@@H]3CCC4=CC(=O)CC[C@@H]4[C@H]3CC[C@@]21CC` [LNG, levonorgestrel], the oocytes ovulated in assay [5] (Example 2, LNG on its own (0.01 mg s.c.), 10 animals per group) was 68 oocytes. Moreover, the oocytes ovulated in assay [5] (treatment group (b), 0.1 mg of levonorgestrel, 5 animals) is 35 oocytes. For the same molecule, in assay [3] (LNG 0.01 mg s.c.), the “Ovulation count, absolute” value came to 35 and the “Ovulation count, mean” value was determined as 7.0 ± 2.0.

Regarding `CC(=O)[C@H]1CC[C@H]2[C@@H]3C=CC4=CC(=O)CC[C@@]4(C)[C@@H]3CC[C@]12C` [Dydrogesterone], the “minimal dose for inhibition of ovulation, p.o. dose/day” value in assay [1] is reported as above 30 mg^33.

(Values after patent US9907806B2, “Pharmaceutical composition for emergency contraception” (Bayer Intellectual Property GmbH, priority 2009, dated 2018).)
